Laboratory results taken from paper PMC9943626, “CS27109, A Selective Thyroid Hormone Receptor-β Agonist Alleviates Metabolic-Associated Fatty Liver Disease in Murine Models” (International Journal of Endocrinology, 2023).
Like-named read-outs stand apart in the source and are kept apart here.

Columns and labels:
WD + CCL4 mouse model = assay: WD + CCL4 mouse model, biochemical, liver weight ratio and liver pathology; format: in vivo, C57/B6 mouse
Method: C57/B6 mouse study: 61 C57/B6 mice ♂ aged 6–7 weeks were purchased from Beijing Vital River Laboratory Animal Technology Co., Ltd. Six animals were kept with a chow diet as normal control, and the other 55 animals were fed 60% fat diet (Western diet, D12492, Research diet) as the model group. […] Animals in the normal and model groups were given solvent by oral gavage. All drugs, including solvent, were administered consecutively for 4 weeks and once a day. After sacrifice, blood was collected and serum was isolated for the AST, ALT, TG, TC, LDL-c, HDL-c, and CK tests, and the livers were weighed to calculate the liver weight ratio. The left lobe of the liver of each mouse was collected for hematoxylin-eosin staining (H and E staining) and sirius red staining.
(§1) The liver samples were fixed in 10% formalin and embedded in paraffin using standard methods. The 4 μm paraffin sections were then assessed for liver histology by H and E staining and liver fibrosis by sirius red staining. The stained sections were panoramic scanned with a NanoZoomer Digital Pathology scanner (S210, Hamamatsu, Japan), and then observed with different visual fields at different magnifications, and scored for different liver lobes in the sections. The total NAS score represents the sum of the scores for steatosis (0–3), lobular inflammation (0–3), and ballooning (0–2), and ranges from 0–8 [30]. VIS7.0 software was used to analyze the area of liver fibrosis in the panoramic scanning SR staining sections, and the percentage of liver fibrosis area in the whole section area was calculated.

HFD-CHOL hamster model = assay: HFD-CHOL hamster model, serum biochemical test; format: in vivo, golden hamster; details: 10 mg/kg (CS27109-M, MGL-3196) oral once a day 4 weeks, mean ± SD
Method: Hamster study: 58 golden hamsters ♂ aged 6–8 weeks were purchased from Beijing Vital River Laboratory Animal Technology Co., Ltd. 10 animals were kept with a diet of food control as normal control, and the other 48 animals were fed 40% fat and 1.25% cholesterol (HFD-CHOL, D12108C, Research diet) as a model group. […] Animals in the normal and model group were given solvent by oral gavage. All drugs, including solvent, were administered consecutively for 4 weeks and once a day. After sacrifice, blood was collected and serum was isolated for the AST, ALT, TG, TC, LDL-c, and HDL-c test.

[1] = Tissue distribution in SD rat; format: in vivo; details: for concentration at 2 h / concentration at 8 h: male, 10 mg/kg oral gavage once
Description: [Worded in the source for another organism; this organism is reported under the same test.] Half of mice for each group (n = 3) were sacrificed 2H and 8H after drug administration, respectively. Blood, heart, and liver were collected at each time point. Blood was processed and detected as mentioned previously. The heart and liver were homogenized and added extractant. The protein of tissue samples was precipitated by vortex oscillation, and the supernatant was collected and determined by LC-MS/MS procedures.

[2] = Observation of diarrhea in treated animals; format: in vivo, rodents; details: animal studies
HFD SD rat model = assay: HFD SD rat model, biochemical, organ weight ratio, liver lipid and liver pathology; format: in vivo
Method: SD rat study: 58 SD rats ♂ aged 5–6 weeks were purchased from Beijing Huafukang Biotechnology Co., Ltd. 9 animals were kept with a food control diet as normal control, and the other 49 animals were fed 40% fat, 1.25% cholesterol and 0.5% sodium cholate (HFD, D12109C, SYSE BIO, Changzhou, China) as a model group. […] Animals in the normal and model groups were given solvent by oral gavage. All drugs, including solvent, were administered consecutively for 4 weeks and once a day. After sacrifice, blood was collected and serum was isolated for the AST, ALT, TG, TC, LDL-c, and HDL-c test, and livers and hearts were weighed to calculate the liver weight ratio and the heart weight ratio, respectively. The right lobe of the liver of each rat was harvested for the TG and TC test (A110-1-1 and A111-1-1, Nanjing Jiancheng Institute of Bioengineering, Nanjing, China) according to the manufacturer's instructions. The left lobe of the liver was collected for hematoxylin-eosin staining (H and E staining) to quantify liver steatosis, inflammation, and ballooning.
as §1

[3] = WD + CCL4 mouse, 4 weeks, MGL3196 10 mg/kg, CS27109 high-dose (30 mg/kg), vs model
[4] = heart, read-out: Heart concentration
[5] = liver, read-out: Liver concentration
[6] = serum, read-out: Serum concentration

CK activity (WD + CCL4 mouse model; WD + CCL4 mouse serum, 10 mg/kg (CS27109-M, MGL-3196) oral once a day 4 weeks, mean ± SD, model 345 ± 268, normal 334 ± 193): 197 ± 129 U/L
average of concentration liver/heart ([1]; 10 mg/kg oral, average of 2H and 8H): 22.325
concentration at 2 h [1, 4]: 156 ng/g
concentration at 8 h [1, 4]: 128 ng/g
concentration at 2 h [1, 5]: 3850 ng/g
concentration at 8 h [1, 5]: 2550 ng/g
concentration at 2 h [1, 6]: 1400 ng/mL
concentration at 8 h [1, 6]: 506 ng/mL
diarrhea in treated animals [2]: exhibit diarrhea
Compound: CC(C)c1cc(Oc2c(Cl)cc(-n3nc(C#N)c(=O)[nH]c3=O)cc2Cl)n[nH]c1=O [MGL3196, 2-[3,5-dichloro-4-(5-isopropyl-6-oxo-1,6-dihydropyridazin-3-yloxy)phenyl]-3,5-dio xo-2,3,4,5-tetrahydro[1,2,4]triazine-6-carbonitrile, reference compound]
LDL-c (WD + CCL4 mouse model; WD + CCL4 mouse serum, 10 mg/kg (CS27109-M, MGL-3196) oral once a day 4 weeks, mean ± SD, model 1.1 ± 0.35, normal 0.43 ± 0.04): 0.33 ± 0.05 mmol/L
TG (WD + CCL4 mouse model; WD + CCL4 mouse serum, 10 mg/kg (CS27109-M, MGL-3196) oral once a day 4 weeks, mean ± SD, model 1.2 ± 0.34, normal 0.91 ± 0.14): 1.0 ± 0.23 mmol/L
HDL-c (WD + CCL4 mouse model; WD + CCL4 mouse serum, 10 mg/kg (CS27109-M, MGL-3196) oral once a day 4 weeks, mean ± SD, model 1.5 ± 0.25, normal 2.0 ± 0.08): 1.2 ± 0.13 mmol/L
TC (WD + CCL4 mouse model; WD + CCL4 mouse serum, 10 mg/kg (CS27109-M, MGL-3196) oral once a day 4 weeks, mean ± SD, model 4.1 ± 0.97, normal 3.0 ± 0.10): 1.9 ± 0.17 mmol/L
AST (WD + CCL4 mouse model; WD + CCL4 mouse serum, 10 mg/kg (CS27109-M, MGL-3196) oral once a day 4 weeks, mean ± SD, model 10245 ± 4955, normal 116 ± 71): 2178 ± 769 U/L
ALT (WD + CCL4 mouse model; WD + CCL4 mouse serum, 10 mg/kg (CS27109-M, MGL-3196) oral once a day 4 weeks, mean ± SD, model 14003 ± 4205, normal 54 ± 15): 4658 ± 1639 U/L
liver inflammation score (H and E) (WD + CCL4 mouse model; [3]): notable reduction
liver steatosis score (H and E) (WD + CCL4 mouse model; [3]): notable reduction
area of liver fibrosis (sirius red) (WD + CCL4 mouse model; WD + CCL4 mouse, 4 weeks, three doses of CS27109 (3, 10, 30 mg/kg), MGL3196 10 mg/kg, vs model): prominently reduced the area of the fibrosis
HDL-c (HFD-CHOL hamster model; model 3.6 ± 1.1, normal 1.6 ± 0.45): 2.9 ± 0.36 mmol/L
LDL-c (HFD-CHOL hamster model; model 17 ± 6.1, normal 1.3 ± 0.54): 8.6 ± 3.3 mmol/L
TG (HFD-CHOL hamster model; model 26 ± 24, normal 2.1 ± 1.1): 5.9 ± 5.6 mmol/L
TC (HFD-CHOL hamster model; model 37 ± 13, normal 3.1 ± 0.72): 18 ± 6.3 mmol/L
ALT (HFD-CHOL hamster model; model 278 ± 174, normal 94 ± 58): 206 ± 47 U/L
AST (HFD-CHOL hamster model; model 638 ± 323, normal 98 ± 45): 752 ± 261 U/L
Liver TC (HFD SD rat model; HFD SD rat liver, 15 mg/kg (CS27109-M, MGL-3196) oral once a day 4 weeks, mean ± SD, model 13 ± 2.2, normal 6.0 ± 0.76): 12 ± 1.7 µmol/g
Liver TG (HFD SD rat model; HFD SD rat liver, 15 mg/kg (CS27109-M, MGL-3196) oral once a day 4 weeks, mean ± SD, model 102 ± 36, normal 0.75 ± 12): 113 ± 38 µmol/g
TG (HFD SD rat model; HFD SD rat serum, 15 mg/kg (CS27109-M, MGL-3196) oral once a day 4 weeks, mean ± SD, model 0.82 ± 0.73, normal 0.53 ± 0.34): 0.11 ± 0.03^∗∗∗ mmol/L
HDL-c (HFD SD rat model; HFD SD rat serum, 15 mg/kg (CS27109-M, MGL-3196) oral once a day 4 weeks, mean ± SD, model 1.2 ± 0.44, normal 1.1 ± 0.13): 0.94 ± 0.26 mmol/L
LDL-c (HFD SD rat model; HFD SD rat serum, 15 mg/kg (CS27109-M, MGL-3196) oral once a day 4 weeks, mean ± SD, model 9.7 ± 6.1, normal 0.28 ± 0.06): 1.1 ± 0.65 mmol/L
TC (HFD SD rat model; HFD SD rat serum, 15 mg/kg (CS27109-M, MGL-3196) oral once a day 4 weeks, mean ± SD, model 20 ± 13, normal 1.5 ± 0.20): 3.3 ± 1.3 mmol/L
ALT (HFD SD rat model; HFD SD rat serum, 15 mg/kg (CS27109-M, MGL-3196) oral once a day 4 weeks, mean ± SD, model 166 ± 95, normal 32 ± 6.8): 74 ± 24 U/L
AST (HFD SD rat model; HFD SD rat serum, 15 mg/kg (CS27109-M, MGL-3196) oral once a day 4 weeks, mean ± SD, model 365 ± 212, normal 103 ± 21): 185 ± 66 U/L
NAS score (HFD SD rat model; HFD SD rat, 4 weeks, 15 mg/kg, vs model): tendency to reduce the NAS score, but without significance
liver steatosis score (H and E) (HFD SD rat model; HFD SD rat, 4 weeks, CS27109 5-45 mg/kg dose-dependent, MGL3196 15 mg/kg, vs model): lessened steatosis
